Legend:
[1] = biological target: T1, NaDC1 (Homo sapiens, UniProt Q13183); assay: whole-cell patch clamp, transfected HEK293T; format: cell-based; parameters: gene SLC13A2; full length, homodimer; GFP and FLAG tagged in HEK293T for currents; settings: citrate-induced current; reversible on washout
T1 sequence (Q13183 1-592): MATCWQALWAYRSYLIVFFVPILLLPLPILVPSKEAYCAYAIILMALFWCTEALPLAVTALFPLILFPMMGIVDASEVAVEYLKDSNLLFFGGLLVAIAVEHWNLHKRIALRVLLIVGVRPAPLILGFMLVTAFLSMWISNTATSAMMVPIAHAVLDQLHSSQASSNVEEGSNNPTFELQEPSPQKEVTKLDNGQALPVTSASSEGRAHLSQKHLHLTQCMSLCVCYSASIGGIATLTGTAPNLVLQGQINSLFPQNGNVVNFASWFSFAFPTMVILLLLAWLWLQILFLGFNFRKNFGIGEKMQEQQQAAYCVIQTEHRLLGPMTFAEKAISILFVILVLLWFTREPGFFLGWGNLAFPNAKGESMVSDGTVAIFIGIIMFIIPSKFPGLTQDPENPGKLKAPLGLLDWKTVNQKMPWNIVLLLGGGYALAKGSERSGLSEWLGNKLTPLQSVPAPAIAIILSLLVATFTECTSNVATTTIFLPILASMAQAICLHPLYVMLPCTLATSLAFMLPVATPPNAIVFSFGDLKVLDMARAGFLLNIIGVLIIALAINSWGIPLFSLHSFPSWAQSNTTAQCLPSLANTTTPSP

[2] = biological target: T2, NaDC1 (Homo sapiens, UniProt Q13183, I550V); assay: cryo-EM structure ([…] Å); format: binding; settings: 400 μM ACA; allosteric site of TM2, L10, TM11, TM6a
T2 construct: gene SLC13A2; full length, homodimer; N-terminal FLAG purified from HEK293F (structures, natural variant I550V); GFP and FLAG tagged in HEK293T for currents
T2 sequence (Q13183 1-592 I550V): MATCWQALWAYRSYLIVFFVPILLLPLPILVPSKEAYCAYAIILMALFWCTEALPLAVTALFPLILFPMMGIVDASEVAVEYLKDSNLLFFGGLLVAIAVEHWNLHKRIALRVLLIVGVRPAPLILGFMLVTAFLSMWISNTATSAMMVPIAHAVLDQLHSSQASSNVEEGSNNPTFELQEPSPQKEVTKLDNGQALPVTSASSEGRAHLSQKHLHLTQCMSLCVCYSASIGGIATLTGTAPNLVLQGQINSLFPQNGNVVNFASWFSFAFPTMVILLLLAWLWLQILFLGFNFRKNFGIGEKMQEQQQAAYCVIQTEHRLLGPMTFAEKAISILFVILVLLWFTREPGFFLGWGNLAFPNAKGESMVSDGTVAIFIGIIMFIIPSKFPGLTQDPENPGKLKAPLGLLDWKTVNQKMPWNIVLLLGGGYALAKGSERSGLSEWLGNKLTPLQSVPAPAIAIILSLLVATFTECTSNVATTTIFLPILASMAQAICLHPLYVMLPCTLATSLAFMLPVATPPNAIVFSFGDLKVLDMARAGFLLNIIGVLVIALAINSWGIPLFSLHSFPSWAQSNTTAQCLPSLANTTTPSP

[3] = biological target: T3, NaS1 (Homo sapiens, UniProt Q9BZW2); assay: cryo-EM structure (IN/IN […] Å, IN/OUT […] Å); format: binding; settings: substrate site; Na+ bound at Na1 in IN/IN
T3 construct: gene SLC13A1; full length, N-terminal FLAG tag, HEK293F membranes, purified in GDN, homodimer
T3 sequence (Q9BZW2 1-595): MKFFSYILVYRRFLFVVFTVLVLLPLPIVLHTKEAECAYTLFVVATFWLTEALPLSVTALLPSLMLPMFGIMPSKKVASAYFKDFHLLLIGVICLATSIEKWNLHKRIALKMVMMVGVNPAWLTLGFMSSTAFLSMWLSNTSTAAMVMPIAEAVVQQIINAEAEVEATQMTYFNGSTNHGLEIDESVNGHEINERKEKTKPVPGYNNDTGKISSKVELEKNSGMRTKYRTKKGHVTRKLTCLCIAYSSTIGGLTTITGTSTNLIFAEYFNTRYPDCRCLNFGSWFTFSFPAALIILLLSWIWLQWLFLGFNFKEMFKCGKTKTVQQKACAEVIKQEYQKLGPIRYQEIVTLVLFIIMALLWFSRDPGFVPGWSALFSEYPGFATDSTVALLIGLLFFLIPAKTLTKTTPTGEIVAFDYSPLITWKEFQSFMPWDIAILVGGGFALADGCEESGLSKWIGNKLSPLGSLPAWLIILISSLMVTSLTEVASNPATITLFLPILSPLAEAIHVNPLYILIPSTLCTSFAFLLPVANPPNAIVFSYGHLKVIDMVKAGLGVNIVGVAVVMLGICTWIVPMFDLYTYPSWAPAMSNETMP

[4] = biological target: the molecule itself; assay: cryo-EM structure; single-particle cryo-EM of purified NaDC1 in 20 mM Hepes pH 7.4, 150 mM NaCl, 0.02% GDN; apo, with 10 mM sodium citrate, or with 400 uM ACA; OUT/OUT dimer
[5] = biological target: the molecule itself; assay: cryo-EM structure; single-particle cryo-EM of purified NaS1 in 25 mM tris pH 8.0, 150 mM NaCl, 0.01% GDN; apo and sulfate-bound; IN/IN and IN/OUT dimers

With `CCCCCc1ccc(/C=C/C(=O)Nc2ccccc2C(=O)O)cc1` [ACA] the “whole-cell patch clamp, transfected HEK293T” value [1] was “A significant decrease in citrate-induced current was detected when ACA was added” and the “cryo-EM structure (3.3 Å)” value [2] was “the cryo-EM structure of NaDC1 bound with ACA was solved”.

`O=S(=O)(O)O` [sulfate] was tested, and the “cryo-EM structure (IN/IN 3.1 Å, IN/OUT 3.2 Å)” value [3] was “there is obvious sulfate density around the classical substrate binding pocket of NaS1_sulfate_IN/IN”.

B1: human NaDC1 (SLC13A2), sodium ion-dicarboxylate cotransporter 1, natural variant I550V (natural protein, UniProt Q13183-1 1-592, looked up)
chain: MATCWQALWAYRSYLIVFFVPILLLPLPILVPSKEAYCAYAIILMALFWCTEALPLAVTALFPLILFPMMGIVDASEVAVEYLKDSNLLFFGGLLVAIAVEHWNLHKRIALRVLLIVGVRPAPLILGFMLVTAFLSMWISNTATSAMMVPIAHAVLDQLHSSQASSNVEEGSNNPTFELQEPSPQKEVTKLDNGQALPVTSASSEGRAHLSQKHLHLTQCMSLCVCYSASIGGIATLTGTAPNLVLQGQINSLFPQNGNVVNFASWFSFAFPTMVILLLLAWLWLQILFLGFNFRKNFGIGEKMQEQQQAAYCVIQTEHRLLGPMTFAEKAISILFVILVLLWFTREPGFFLGWGNLAFPNAKGESMVSDGTVAIFIGIIMFIIPSKFPGLTQDPENPGKLKAPLGLLDWKTVNQKMPWNIVLLLGGGYALAKGSERSGLSEWLGNKLTPLQSVPAPAIAIILSLLVATFTECTSNVATTTIFLPILASMAQAICLHPLYVMLPCTLATSLAFMLPVATPPNAIVFSFGDLKVLDMARAGFLLNIIGVLVIALAINSWGIPLFSLHSFPSWAQSNTTAQCLPSLANTTTPSP
notes: full-length human SLC13A2 (NaDC1), NP_003975.1, UniProtKB Q13183, with the natural variant I550V that was used to determine the structures; Homodimer in the cryo-EM structures (OUT/OUT; No removal of the FLAG tag is described; the protein was captured on anti-FLAG resin and eluted with FLAG peptide; also called NaDC1_apo; NaDC1_citrate; source: extracted in DDM/CHS, exchanged to GDN); not shown: …
B1: binds [4].

B2: human NaS1 (SLC13A1), sodium ion-sulfate cotransporter 1 (natural protein, UniProt Q9BZW2 1-595, looked up)
chain: MKFFSYILVYRRFLFVVFTVLVLLPLPIVLHTKEAECAYTLFVVATFWLTEALPLSVTALLPSLMLPMFGIMPSKKVASAYFKDFHLLLIGVICLATSIEKWNLHKRIALKMVMMVGVNPAWLTLGFMSSTAFLSMWLSNTSTAAMVMPIAEAVVQQIINAEAEVEATQMTYFNGSTNHGLEIDESVNGHEINERKEKTKPVPGYNNDTGKISSKVELEKNSGMRTKYRTKKGHVTRKLTCLCIAYSSTIGGLTTITGTSTNLIFAEYFNTRYPDCRCLNFGSWFTFSFPAALIILLLSWIWLQWLFLGFNFKEMFKCGKTKTVQQKACAEVIKQEYQKLGPIRYQEIVTLVLFIIMALLWFSRDPGFVPGWSALFSEYPGFATDSTVALLIGLLFFLIPAKTLTKTTPTGEIVAFDYSPLITWKEFQSFMPWDIAILVGGGFALADGCEESGLSKWIGNKLSPLGSLPAWLIILISSLMVTSLTEVASNPATITLFLPILSPLAEAIHVNPLYILIPSTLCTSFAFLLPVANPPNAIVFSYGHLKVIDMVKAGLGVNIVGVAVVMLGICTWIVPMFDLYTYPSWAPAMSNETMP
notes: full-length human SLC13A1 (NaS1), NP_071889.2, UniProtKB Q9BZW2; No removal of the FLAG tag is described; the protein was captured on anti-FLAG resin and eluted with FLAG peptide; not shown: FLAG, N-terminal, kept
B2: binds [5].
